# Measurements taken from publication PMC6098951, “Design and synthesis of new esters of terpenoid alcohols as 15-lipoxygenase inhibitors” (Iranian Journal of Basic Medical Sciences, 2018).
# Read-outs that look alike come from different tables or passages of the source.
# Key:
# [1] = biological target: T1, SLO (soybean 15-lipoxygenase: L1; EC 1,13,11,12) (Glycine max, UniProt P08170); assay: 15-lipoxygenase inhibitory assessment (peroxide formation method); assay type: biochemical; details: for IC50: SLO
# T1 sequence (P08170 1-839): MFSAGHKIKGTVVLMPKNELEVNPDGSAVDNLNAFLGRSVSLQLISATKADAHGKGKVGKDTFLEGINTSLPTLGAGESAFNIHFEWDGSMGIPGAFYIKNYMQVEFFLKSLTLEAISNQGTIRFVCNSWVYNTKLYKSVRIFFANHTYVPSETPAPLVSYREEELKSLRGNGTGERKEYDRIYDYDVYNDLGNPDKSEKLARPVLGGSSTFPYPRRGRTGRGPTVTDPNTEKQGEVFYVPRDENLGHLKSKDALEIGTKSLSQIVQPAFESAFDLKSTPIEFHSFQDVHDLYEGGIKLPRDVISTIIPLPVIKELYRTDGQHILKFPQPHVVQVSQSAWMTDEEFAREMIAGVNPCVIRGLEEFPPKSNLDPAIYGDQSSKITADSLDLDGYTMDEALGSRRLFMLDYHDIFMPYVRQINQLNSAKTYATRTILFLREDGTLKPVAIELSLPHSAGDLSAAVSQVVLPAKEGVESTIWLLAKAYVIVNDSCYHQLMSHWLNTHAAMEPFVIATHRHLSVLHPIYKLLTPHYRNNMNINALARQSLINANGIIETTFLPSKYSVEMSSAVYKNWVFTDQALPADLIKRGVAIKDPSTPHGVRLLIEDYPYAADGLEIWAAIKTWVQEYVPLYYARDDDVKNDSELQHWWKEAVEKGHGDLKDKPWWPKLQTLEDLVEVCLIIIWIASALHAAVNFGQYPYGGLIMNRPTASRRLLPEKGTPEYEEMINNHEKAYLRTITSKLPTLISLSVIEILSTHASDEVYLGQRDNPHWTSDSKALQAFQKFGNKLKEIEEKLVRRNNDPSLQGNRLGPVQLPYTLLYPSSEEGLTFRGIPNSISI
# Method: Linoleic acid and two assay solutions (A and B) were prepared in advance. Solution A was 50 mM (3-dimethylaminobenzoic acid) (DMAB) in l00 mM phosphate buffer (pH 7.0). Solution B was a mixture of l0 mM (3-methyl-2-benzothiazolonhydrazone) (MBTH) (3 ml), hemoglobin (5 mg/ml, 3 ml) in 50 mM phosphate buffer at pH 5.0 (25 ml). A linoleic acid solution was prepared by mixing 5 mg of linoleic acid with 0.5 ml ethanol and then diluting with KOH 100 mM to a final volume of 5 ml. In the standard assay, the sample in ethanol (25 µl), SLO (4,000 units/ml in 50 mM phosphate buffer pH 7.0; 25 µl), and phosphate buffer pH 7.0 (50 mM; 900 µl) were mixed in a test tube, and pre-incubation was carried out for 5 min at room temperature. A control test was performed with the same volume of ethanol. After pre-incubation, linoleic acid solution (50 µl) was added to start the peroxidation reaction, and, 7 min later, solution A (270 µl) and then solution B (130 µl) were added to start the color formation. Further, 5 min later, 200 µl of a 2 % sodium dodecyl sulfate (SDS) solution was added to terminate the reaction. The absorbance at 598 nm was compared to control test.
# The inhibitory activity of all synthetic compounds against SLO (soybean 15-lipoxygenase: L1; EC 1,13,11,12) was determined using the peroxide formation method ([13], [14]). In this method, the basis of evaluation of lipoxygenase activity is measuring the concentration of fatty acid peroxide. All measurements were compared with 4-methyl-2-(4-methylpiperazinyl)pyrimido[4,5-b]benzothiazine (4-MMPB), one of the known lipoxygenase inhibitors (Table 1).
# [2] = DPPH bleaching (radical scavenging); details: 25 μM DPPH in ethanol, 30 min at room temperature, absorbance 517 nm; ± SEM
# Method: DPPH solution (25 μM) in absolute ethanol was prepared. […] Ethanol was used as control solution. After 30 min at room temperature, the absorbance was recorded at 517 nm.
# The radical scavenging ability of all synthetic compounds using stable free radicals (DPPH: 2,2-diphenyl-
# 1-picrylhydrazyl) has been previously measured (Table 1) ([15]). In this assessment, the DPPH bleaching potency of the synthetic compounds has been reported as IC50 values.
# [3] = linoleic acid substrate, pH 7.0, absorbance 598 nm, ± SEM, read-out: Lipoxygenase inhibition IC50
# [4] = read-out: IC50 inhibitory activity against soybean 15-lipoxygenase (abstract)
Structure (SMILES),"IC50 [1, 3]",IC50 [2],melting point,"IC50 [1, 4]",fold less inhibitory potency versus 2b ([1]; lipoxygenase inhibition IC50 compared with 2b)
"COc1ccc(C(=O)O[C@H]2C3(C)CCC(C3)C2(C)C)cc1OC (stereo partly drawn) [2d, (2S)-1,3,3-trimethylbicyclo[2.2.1]heptan-2-yl 3,4-dimethoxybenzoate]",> 500 µM,> 500 µM,,,
"COc1cc(/C=C/C(=O)O[C@H]2C3(C)CCC(C3)C2(C)C)ccc1O (stereo partly drawn) [2f, (2S)-1,3,3-trimethylbicyclo[2.2.1]heptan-2-yl(E)-3-(4-hydroxy-3-methoxyphenyl)acrylate]",194 ± 11.3 µM,> 500 µM,,,
"COc1cccc(C(=O)O[C@H]2C3(C)CCC(C3)C2(C)C)c1 (stereo partly drawn) [2c, (2S)-1,3,3-trimethylbicyclo[2.2.1]heptan-2-yl 3-methoxybenzoate]",> 500 µM,> 500 µM,,,
"O=C(/C=C/c1ccc(O)c(O)c1)OC12CC3CC(CC(C3)C1)C2 [2l, (3s,5s,7s)-adamantan-1-yl (E)-3-(3,4-dihydroxyphenyl) acrylate]",3.9 ± 0.61 µM,18 ± 1.9 µM,191 to 196 °C,,
"CC12CCC(C1)C(C)(C)[C@H]2OC(=O)/C=C/c1ccc(O)c(O)c1 (stereo partly drawn) [2g, (2S)-1,3,3-trimethylbicyclo[2.2.1]heptan-2-yl (E)-3-(3,4-dihydroxyphenyl)acrylate]",1.67 ± 0.22 µM,10.9 ± 1.1 µM,,,
"COc1cc(C(=O)O[C@H]2C3(C)CCC(C3)C2(C)C)ccc1O (stereo partly drawn) [2a, (2S)-1,3,3-trimethylbicyclo[2.2.1]heptan-2-yl 4-hydroxy-3-methoxybenzoate]",40.1 ± 2.2 µM,> 500 µM,120 to 122 °C,,
"CCOC(=O)c1ccc(O)c(O)c1 [2p, ethyl catechuate]",6.5 ± 0.53 µM,9.2 ± 0.45 µM,,,about 5 fold
"COc1cc(C(=O)O[C@@H]2CC3CCC2(C)C3(C)C)ccc1O (stereo partly drawn) [2h, (2R)-1,7,7-trimethylbicyclo[2.2.1]heptan-2-yl 4-hydroxy-3-methoxybenzoate]",273 ± 11.3 µM,> 500 µM,,,
"COc1cc(C(=O)OC23CC4CC(CC(C4)C2)C3)ccc1O [2i, (3s,5s,7s)-adamantan-1-yl 4-hydroxy-3-methoxy benzoate]",164 ± 13.2 µM,> 500 µM,136 to 139 °C,,
"Cc1nc(N2CCN(C)CC2)nc2c1Sc1ccccc1N2 [4-MMPB, 4-methyl-2-(4-methylpiperazinyl)pyrimido[4,5-b]benzothiazine, reference compound]",38.5 ± 1.97 µM,17.1 ± 2 µM,,,

# The remaining compounds from weak to strong by IC50 [2], led by results:
"IC50 [1, 3]",IC50 [2],melting point,"IC50 [1, 4]",Structure (SMILES),fold less inhibitory potency versus 2b ([1]; lipoxygenase inhibition IC50 compared with 2b)
3.57 ± 0.19 µM,10.8 ± 0.67 µM,212 to 217 °C,,"O=C(OCC12CC3CC(CC(C3)C1)C2)c1ccc(O)c(O)c1 [2m, (3r,5r,7r)-adamantan-1-yl)methyl 3,4-dihydroxybenzoate]",
1.68 ± 0.61 µM,10 ± 1 µM,58 to 61 °C,,"CC12CCC(C1)C(C)(C)[C@H]2OC(=O)c1ccc(O)c(O)c1 (stereo partly drawn) [2b, (2S)-1,3,3-trimethylbicyclo[2.2.1]heptan-2-yl 3,4-dihydroxybenzoate]",
,9.4 ± 0.81 µM,40 to 42 °C,0.78 µM,"CC1(C)C2CCC1(C)[C@H](OC(=O)c1ccc(O)c(O)c1)C2 (stereo partly drawn) [2o, (2R)-1,7,7-trimethylbicyclo[2.2.1]heptan-2-yl 3,4-dihydroxybenzoate]",
,9.1 ± 0.79 µM,170 to 173 °C,0.95 µM,"O=C(OC12CC3CC(CC(C3)C1)C2)c1ccc(O)c(O)c1 [2j, (3s,5s,7s)-adamantan-1-yl 3,4-dihydroxybenzoate]",
5.4 ± 0.55 µM,6.5 ± 0.43 µM,209 to 211 °C,,"O=C(NC12CC3CC(CC(C3)C1)C2)c1ccc(O)c(O)c1 [3a', N-((3s,5s,7s)-adamantan-1-yl)-3,4-dihydroxybenzamide]",
2.7 ± 0.13 µM,5.98 ± 0.53 µM,161 to 164 °C,,"O=C(/C=C/c1ccc(O)c(O)c1)OCC12CC3CC(CC(C3)C1)C2 [2n, ((3r,5r,7r)-adamantan-1-yl)methyl(E)-3-(3,4-dihydroxyphenyl)acrylate]",
188 ± 14 µM,5.05 ± 4.08 µM,130 to 132 °C,,"COc1cc(/C=C/C(=O)NC23CC4CC(CC(C4)C2)C3)ccc1O [3b', (E)-N-((3s,5s,7s)-adamantan-1-yl)-3-(4-hydroxy-3-methoxyphenyl)acrylamide]",
2.28 ± 0.1 µM,4.5 ± 0.19 µM,195 to 199 °C,,"O=C(OC12CC3CC(CC(C3)C1)C2)c1cc(O)c(O)c(O)c1 [2k, (3s,5s,7s)-adamantan-1-yl 3,4,5-trihydroxybenzoate]",
1.71 ± 0.41 µM,3.46 ± 0.33 µM,171 to 173 °C,,"CC12CCC(C1)C(C)(C)[C@H]2OC(=O)c1cc(O)c(O)c(O)c1 (stereo partly drawn) [2e, (2S)-1,3,3-trimethylbicyclo[2.2.1]heptan-2-yl 3,4,5-trihydroxybenzoate]",
